Results taken from the supplement of paper PMC10307832.

Tests used:
Experiment in all cases: relative viability (nuclei count vs DMSO), 5 days (fraction); higher = more cells survive
[1] = compound: C(C(=O)C(=O)O)Br [Bromopyruvate] + NC(=O)Nc1cc(-c2cccc(F)c2)sc1C(=O)N[C@H]1CCCNC1 [AZD7762] (partner 0.2 µM)
Procedure, shortened: (§1)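 Medians of duplicate plates are given as relative viability. That measure is the nuclei count in treated wells divided by the count in vehicle wells. Counts were taken on 4× images of lung cancer cell lines in 1536-well plates, 5 days after pin-tool dosing the day after seeding with one drug alone or a fixed anchor-drug dose plus five library-drug doses (not always all listed) in √10 steps.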

[2] = compound: C(C(=O)C(=O)O)Br [Bromopyruvate] + Cc1cc(Nc2cc(N3CCN(C)CC3)nc(Sc3ccc(NC(=O)C4CC4)cc3)n2)n[nH]1 [Tozasertib] (partner 0.1 µM)
Procedure, shortened: as §1

[3] = compound: C(C(=O)C(=O)O)Br [Bromopyruvate] + COc1cccc2cc(-c3nc([C@H]4CC[C@H](C(=O)O)CC4)n4ncnc(N)c34)[nH]c12 [OSI-027] (partner 0.5 µM)
Procedure, shortened: as §1

[4] = compound: CC(O)(CS(=O)(=O)c1ccc(F)cc1)C(=O)Nc1ccc(C#N)c(C(F)(F)F)c1 [Bicalutamide] + Cc1nc(NC(=O)N2CCC[C@H]2C(N)=O)sc1-c1ccnc(C(C)(C)C(F)(F)F)c1 [Alpelisib] (partner 2 µM)
Procedure, shortened: as §1

Cell Line	relative viability ([1]; first compound 1 µM)	relative viability ([1]; first compound 3.162 µM)	relative viability ([1]; first compound 10 µM)	relative viability ([1]; first compound 31.62 µM)	relative viability ([1]; first compound 100 µM)	relative viability ([2]; first compound 1 µM)	relative viability ([2]; first compound 3.162 µM)	relative viability ([2]; first compound 10 µM)	relative viability ([2]; first compound 31.62 µM)	relative viability ([2]; first compound 100 µM)	relative viability ([3]; first compound 1 µM)	relative viability ([3]; first compound 3.162 µM)	relative viability ([3]; first compound 10 µM)	relative viability ([3]; first compound 31.62 µM)	relative viability ([3]; first compound 100 µM)	relative viability ([4]; first compound 0.08 µM)	relative viability ([4]; first compound 0.253 µM)	relative viability ([4]; first compound 0.8 µM)	relative viability ([4]; first compound 2.53 µM)
HCC-78	0.481	0.624	0.565	0.549	0.463	0.375	0.404	0.481	0.311	0.536	0.379	0.326	0.403	0.355	0.345	0.288	0.327	0.452	0.253
NCI-H838	0.914	0.913	1.02	0.949	0.935	0.268	0.291	0.305	0.242	0.293	0.428	0.37	0.422	0.386	0.393	0.984	0.909	0.984	0.945
NCI-H2126	0.989	1.04	1.2	0.953	1.04	0.881	0.858	0.825	0.879	0.783	0.756	0.707	0.65	0.668	0.824	0.742	0.707	0.76	0.74
BEN	0.806	0.662	0.743	0.613	0.619	0.556	0.558	0.426	0.499	0.402	0.307	0.296	0.293	0.277	0.298	0.89	0.991	1.36	1.01
LCLC-103H	0.726	0.804	0.951	0.751	0.901	0.515	0.446	0.466	0.466	0.544	0.408	0.487	0.528	0.451	0.494	1.04	0.907	1.1	1.02
EKVX	0.818	0.791	0.662	0.61	0.693	0.427	0.391	0.458	0.377	0.421	0.746	0.691	0.827	0.666	0.761	0.846	0.827	1.01	0.829
LXF-289	1.07	1.12	1.08	1.07	1.26	0.184	0.179	0.213	0.152	0.172	0.809	0.851	0.8	0.847	0.914	1.04	0.952	1.08	1.03
ABC-1	0.532	0.995	0.951	0.834	0.734	0.178	0.195	0.155	0.146	0.166	0.425	0.471	0.513	0.521	0.548	1.03	1.21	0.997	0.992
